The record followed here is patent US20240417408A1, “SMALL MOLECULE INHIBITORS OF KRAS G12C MUTANT” (MERCK SHARP & DOHME CORP., priority 2021, published 2024).

Assay [1] addresses T1, Recombinant KRAS G12C mutant protein (amino acids 1-169, SEQ ID NO: 1) (Homo sapiens, UniProt P01116, G12C).
T1 construct: His6 (N); TEV protease site (ENLYFQG; named from own knowledge) (N); made in house; host or cells: E. coli
Description: Test Example 1: inhibitory activity on KRAS G12C nucleotide (GDP-GTP) exchange reaction in vitro. The assay is classed as biochemical. Conditions: BODIPY FL GDP-bound KRAS G12C incubated with compound at 25° C. for 1 hour, then SOS1 and GMPPNP, read-out: GNE IC50. As for the experimental part: Test Example 1: Evaluation of inhibitory activity of compounds on KRAS G12C nucleotide (GDP-GTP) exchange reaction in vitro
Recombinant KRAS G12C mutant protein (amino acids 1-169, SEQ ID NO: 1) and cleaved recombinant SOS1 (amino acids 564-1049, SEQ ID NO:2) proteins were expressed in E. coli and purified by affinity chromatography.
To prepare BODIPY FL GDP-bound KRAS G12C protein, 50 μM KRAS G12C protein was incubated with 0.5 mM BODIPY FL GDP in a loading buffer (20 mM Tris-HCl (pH 7.5), 50 mM NaCl, 1 mM DTT and 2.5 mM EDTA) for 1 hour on ice. After the incubation, MgCl2 was added to a final concentration of 10 mM, followed by incubation at room temperature for 30 minutes. The mixture was allowed to pass through a NAP-5 column to remove free nucleotides and purified BODIPY FL GDP-bound KRAS G12C protein was used for compound evaluation.
For the measurement of the inhibitory activity of compounds on GDP-GTP exchange rate of recombinant KRAS G12C, BODIPY FL GDP-bound KRAS G12C protein was incubated with various concentrations of compound in a reaction buffer (20 mM Tris-HCl (pH 7.5), 100 mM NaCl, 1 mM MgCl2, 2 mM DTT, 0.1% Tween 20) at 25° C. for 1 hour. After the incubation, recombinant SOS1 and Guanosine-5′-[(β,γ)-imido]triphosphate, Tetralithium salt (GMPPNP) (Jena Bioscience GmbH) were added and incubated at room temperature for 30 minutes to proceed SOS1-dependent GDP-GTP exchange reaction on KRAS G12C. Replacement of BODIPY FL GDP by GMPPNP was measured by calculating the ratio of fluorescence intensities of BODIPY FL before and after the exchange reaction. Inhibition % was calculated by setting the fluorescence ratio from the reaction without test compound (DMSO control) and the fluorescence ratio from the reaction without SOS1 and GMPPNP as 0% and 100% inhibition, respectively. IC50 values were calculated from dose titration curve using curve fitting by XLfit software (IDBS).

Assay [2] has as its system MIA PaCa-2 cells. Description: Test Example 3: growth inhibition activity on KRAS-G12C mutant cell line (MIA PaCa-2). It is filed as cell-based. Conditions: Homo sapiens, 72 h, MIA PaCa-2, 3-day culture, CellTiter-Glo 3D, read-out: CTX MiaPaCa IC50. As for the experimental part:
Test Example 3: Assay of Growth Inhibition Activity on KRAS-G12C Mutant Cell Line (MIA PaCa-2) (In Vitro)
MIA PaCa-2 cells (provided by Sumitomo Dainippon Pharma Co., Ltd.), which are a KRAS-G12C mutant human pancreas cancer cell line, were suspended in a 10% fetal bovine serum-containing RPMI1640 medium (manufactured by Fujifilm Wako Pure Chemical Corporation.). The cell suspension was seeded into each well of a 384-well U bottom microplate and cultured in an incubator containing 5% CO2 gas at 37° C. for 1 day. The compounds obtained in the Examples section were used as test compounds and were dissolved in DMSO, respectively, and each test compound was diluted with DMSO to give a concentration 500 times the final concentration. The resultant solution of the test compound in DMSO was diluted with the medium used for suspending cells and added to each well of the cell-culture plate to give a DMSO final concentration of 0.2%, followed by culture in an incubator containing 5% CO2 gas at 37° C. for another 3 days. The cell count after 3-day culture in the presence of the test compound was measured using CellTiter-Glo 3D Reagent (manufactured by Promega Corporation). To all cells were added with CellTiter-Glo 3D Reagent and mixed for 10 minutes. 30 minutes after mixing, luminescence was measured by a plate reader. The growth inhibition rate was calculated from the following equation, and the concentration of the test compound at which 50% inhibition was achieved (IC50 (nM)) was determined.
[formula] • T: the emission intensity in a well into which a test compound was added. • C: the emission intensity in a well into which a test compound was not added.
Background: Cellular ATP, detected with luciferase, serves as a proxy for viable cell number.

Assay [3] addresses T2, interaction between KRAS G12C and cRAF-RBD (Homo sapiens, UniProt P01116, G12C).
T2 construct: TEV protease site (ENLYFQG); made in house; host or cells: E. coli
Description: Test Example 2: inhibitory activity on interaction between KRAS G12C and cRAF (Alpha technology). The assay is classed as binding. As to conditions: GMPPNP-bound KRAS G12C incubated with compound at 25° C. for 1 hour, then cRAF-RBD. Here is the method:
Test Example 2: Evaluation of Inhibitory Activity of Compounds on Interaction Between KRAS G12C and cRAF (In Vitro)
Interaction between recombinant KRAS G12C mutant protein (SEQ ID NO: 1) and cRAF RAS-binding domain (cRAF-RBD, amino acids 50-132, Jena Biosciences GmbH) was measured using Alpha technology (PerkinElmer Inc.).
Recombinant KRAS G12C protein with an N-terminal His-tag was expressed in E. coli and purified by affinity chromatography. To prepare GTP-bound form and GDP-bound form of KRAS G12C protein, 50 μM KRAS G12C protein was incubated with 1 mM GMPPNP (Jena Bioscience GmbH) and 1 mM GDP, respectively, in a loading buffer (20 mM Tris-HCl (pH 7.5), 50 mM NaCl, 1 mM DTT and 2.5 mM EDTA) for 1 hour on ice. After the incubation, MgCl2 was added to a final concentration of 10 mM, followed by incubation at room temperature for 30 minutes. The mixture was allowed to pass through a NAP-5 column to remove free nucleotides and purified, and the resultant nucleotide-bound KRAS G12C protein was used for compound evaluation.
For the measurement of the inhibitory activity of compounds on interaction between KRAS G12C and cRAF-RBD, GMPPNP-bound KRAS G12C protein was incubated with various concentrations of compound in a reaction buffer (20 mM Tris-HCl (pH 7.5), 100 mM NaCl, 1 mM MgCl2, 1 mM TCEP, 0.1% Tween 20) at 25° C. for 1 hour. After the incubation, recombinant cRAF-RBD and Alpha detection reagents were added and incubated at room temperature for 1.5 hours for binding. Interaction of KRAS G12C and cRAF-RBD was monitored by measuring Alpha signal. Inhibition % was calculated using the signal from the reaction without test compound (DMSO control) as 0% inhibition and the signal from the reaction using GDP-bound KRAS G12C in place of GMPPNP-bound KRAS G12C as 100% inhibition. IC50 values were calculated from dose titration curve using curve fitting by XLfit software (IDBS).

T1 sequence (P01116 with tags, fused parts or gaps isoform P01116-2 G12C): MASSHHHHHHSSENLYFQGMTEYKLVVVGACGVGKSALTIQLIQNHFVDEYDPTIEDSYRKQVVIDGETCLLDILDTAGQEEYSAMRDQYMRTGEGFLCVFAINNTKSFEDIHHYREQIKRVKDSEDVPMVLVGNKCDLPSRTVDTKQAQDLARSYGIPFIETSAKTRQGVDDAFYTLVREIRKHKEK
T2 sequence (P01116 with tags, fused parts or gaps isoform P01116-2 G12C): as above

In general, IC50 refers to the concentration that inhibits the measured activity by half. `C#Cc1cccc2cc(O)cc(C3Cc4nc(OC5CN(S(C)(=O)=O)C5)nc(N5CCN(C(=O)/C=C/CN6CCC(OC)CC6)[C@@H](CC#N)C5)c4CO3)c12` (stereo partly drawn) [Example 16, 2-((2S)-4-(7-(8-ethynyl-3-hydroxynaphthalen-1-yl)-2-((1-(methylsulfonyl)azeti-din-3-yl)oxy)-7,8-dihydro-5H-pyrano[4,3-d]pyrimidin-4-yl)-1-((E)-4-(4-methoxy-piperidin-1-yl)but-2-enoyl)-piperazin-2-yl)acetonitrile]: the IC50 in assay [1] was 338 nM; in assay [2], over 10000 nM; in assay [3], over 6670 nM.
As to `C#Cc1cccc2cccc([C@@H]3Cc4nc(OCC5(CN6CCOCC6)CC5)nc(N5CCN(C(=O)/C=C/CN6CCC(OC)CC6)[C@@H](CC#N)C5)c4CO3)c12` [Example 12, 2-((S)-4-((S)-7-(8-ethynyl-naphthalen-1-yl)-2-((1-(morpholinomethyl)cyclo-propyl)methoxy)-7,8-dihydro-5H-pyrano[4,3-d]pyrimidin-4-yl)-1-((E)-4-(4-methoxypiperidin-1-yl)-but-2-enoyl)piperazin-2-yl)-acetonitrile], the results for the 50% inhibitory concentration (IC50) in assay [1], in assay [2] and in assay [3] were 6.7 nM, 170 nM and 309 nM, respectively.
For `COC1CCN(C/C=C/C(=O)N2CCN(c3nc(OC[C@@H]4CCCN4C)nc4c3COC(c3cccc5cccc(Br)c35)C4)C[C@@H]2CC#N)CC1` (stereo partly drawn) [Example 5, 2-((2S)-4-(7-(8-bromonaph-thalen-1-yl)-2-(((S)-1-meth-ylpyrrolidin-2-yl)methoxy)-7,8-dihydro-5H-pyrano[4,3-d]pyrimidin-4-yl)-1-((E)-4-(4-methoxypiperidin-1-yl)-but-2-enoyl)piperazin-2-yl)-acetonitrile] the same measures were 2.63 nM, 177 nM and 2820 nM.
As for `C#Cc1cccc2cccc(C3Cc4nc(OCC5(CN6CCOCC6)CC5)nc(N5CCN(C(=O)/C=C/CN6CCC(OC)CC6)[C@@H](CC#N)C5)c4CO3)c12` (stereo partly drawn) [Example 6, 2-((2S)-4-(7-(8-ethynylnaph-thalen-1-yl)-2-((1-(morpho-linomethyl)cyclopropyl)-methoxy)-7,8-dihydro-5H-pyrano[4,3-d]pyrimidin-4-yl)-1-((E)-4-(4-methoxy-piperidin-1-yl)but-2-enoyl)-piperazin-2-yl)acetonitrile], the half-maximal inhibitory concentration (IC50) was 15.4 nM in assay [1], 268 nM in assay [2] and 1260 nM in assay [3].
In the same order, the values of `C#Cc1cccc2cc(O)cc([C@@H]3Cc4nc(OC[C@@H]5CCCN5C)nc(N5CCN(C(=O)/C=C/CN[C@H]6CC[C@H](OC)CC6)[C@@H](CC#N)C5)c4CO3)c12` [Example 8, 2-((S)-4-((S)-7-(8-ethynyl-3-hydroxynaphthalen-1-yl)-2-(((S)-1-methylpyrrolidin-2-yl)methoxy)-7,8-dihydro-5H-pyrano[4,3-d]pyrimidin-4-yl)-1-((E)-4-(((1r,4S)-4-methoxycyclohexyl)amino)-but-2-enoyl)piperazin-2-yl)-acetonitrile] are 0.54 nM, 6.4 nM and 64.4 nM.
In the same order, the values of `CO[C@H]1CC[C@H](NC/C=C/C(=O)N2CCN(c3nc(OC[C@@H]4CCCN4C)nc4c3COC(c3cccc5ccccc35)C4)C[C@@H]2CC#N)CC1` (stereo partly drawn) [Example 2, 2-((2S)-1-((E)-4-(((1r,4S)-4-methoxycyclohexyl)amino)-but-2-enoyl)-4-(2-(((S)-1-methylpyrrolidin-2-yl)meth-oxy)-7-(naphthalen-1-yl)-7,8-dihydro-5H-pyrano[4,3-d]pyrimidin-4-yl)piperazin-2-yl)acetonitrile] are 3.53 nM, 111 nM and 43700 nM.
For `COC1CCN(C/C=C/C(=O)N2CCN(c3nc(OC[C@@H]4CCCN4C)nc4c3COC(c3cccc5ccccc35)C4)C[C@@H]2CC#N)CC1` (stereo partly drawn) [Example 4, 2-((2S)-1-((E)-4-(4-methoxy-piperidin-1-yl)but-2-enoyl)-4-(2-(((S)-1-methylpyrroli-din-2-yl)methoxy)-7-(naph-thalen-1-yl)-7,8-dihydro-5H-pyrano[4,3-d]pyrimidin-4-yl)piperazin-2-yl)acetonitrile] the same measures were 7.19 nM, 333 nM and 9580 nM.
For the compound `C#Cc1cccc2cc(O)cc([C@@H]3Cc4nc(OC[C@@H]5CCCN5C)nc(N5C[C@H](CC#N)N(C(=O)/C=C/CN6CCC(OC)CC6)C[C@@H]5C)c4CO3)c12` [Example 15, 2-((2S,5S)-4-((S)-7-(8-ethynyl-3-hydroxynaph-thalen-1-yl)-2-(((S)-1-meth-ylpyrrolidin-2-yl)methoxy)-7,8-dihydro-5H-pyrano[4,3-d]pyrimidin-4-yl)-1-((E)-4-(4-methoxypiperidin-1-yl)-but-2-enoyl)-5-methyl-piperazin-2-yl)acetonitrile], the IC50 in assay [1] was 103 nM; in assay [2], 1920 nM; in assay [3], over 6670 nM.
For `C#Cc1cccc2cc(O)cc([C@@H]3Cc4nc(OCC5(C(=O)N(C)C)CC5)nc(N5CCN(C(=O)/C=C/CN6CCC(OC)CC6)[C@@H](CC#N)C5)c4CO3)c12` [Example 18, 1-((((S)-4-((S)-3-(cyano-methyl)-4-((E)-4-(4-meth-oxypiperidin-1-yl)but-2-enoyl)piperazin-1-yl)-7-(8-ethynyl-3-hydroxynaph-thalen-1-yl)-7,8-dihydro-5H-pyrano[4,3-d]pyrimidin-2-yl)oxy)methyl)-N,N-dimethylcyclopropane-1-carboxamide] the same measures were 58.7 nM, 4460 nM and over 6670 nM.
